Measurements as given in ChEMBL document CHEMBL4049411, “Rational Design, Synthesis, and Biological Evaluation of Heterocyclic Quinolones Targeting the Respiratory Chain of Mycobacterium tuberculosis” (J Med Chem, 2017).
Converted amounts (≈) assume the structure as drawn.

How the values were obtained:
[1] = (§1) Inhibition of replicating Mycobacterium tuberculosis H37Rv NDH assessed as cell growth inhibition after 7 days by MABA method; details: 168 h
HepG2 = experiment: Cytotoxicity against human HepG2 cells after 24 hrs in presence of glucose by MTT assay; format: cell-based; details: hepg2, 24 h
[2] = Metabolic stability in mouse liver microsomes assessed as half life for metabolic turnover at 0.1 to 10 uM preincubated for 60 mins in presence of NADPH measured up to 60 mins by mass spectroscopic analysis; format: ADME, microsome
[3] = Metabolic stability in rat liver microsomes assessed as half life for metabolic turnover at 0.1 to 10 uM preincubated for 60 mins in presence of NADPH measured up to 60 mins by mass spectroscopic analysis; format: ADME, microsome
[4] = Metabolic stability in human liver microsomes assessed as half life for metabolic turnover at 0.1 to 10 uM preincubated for 60 mins in presence of NADPH measured up to 60 mins by mass spectroscopic analysis; format: ADME, microsome
[5] = test system: Mycobacterium tuberculosis H37Rv; experiment: as §1
[6] = Aqueous solubility of compound; format: physicochemical; details: buffer
[7] = Intrinsic clearance in rat hepatocytes assessed per million cells; format: ADME, cell-based, Hepatocyte; details: read-out: CLH
[8] = Lipophilicity, logD of compound at pH 7.4; details: buffer
[9] = Protein binding in human plasma at 1 uM after 18 hrs by equilibrium dialysis; format: ADME, cell-free; details: read-out: PPB (converted)
[10] = Intrinsic clearance in human microsomes; format: ADME, Microsome; details: read-out: CLH

## COc1ccc2c(=O)c(C)c(-c3ccc(N4CCC(Cc5ccccc5)CC4)cc3)[nH]c2c1
[1]
  IC50: > 10000 nM

## Cc1c(-c2ccc(N3CC[C@@H]3C(=O)NC(C)(C)C)cc2)[nH]c2cc(F)cc(F)c2c1=O
[1]
  IC50: > 10000 nM

## Cc1c(-c2ccc(N3CCC[C@@H]3C(=O)NC(C)(C)C)cc2)[nH]c2cc(F)cc(F)c2c1=O
[1]
  IC50: 960 nM

## Cc1c(-c2cccc(N3CCCCC3)c2)[nH]c2cc(F)cc(F)c2c1=O
[1]
  IC50: > 10000 nM

## Cc1c(-c2ccc(-n3cccc3)cc2F)[nH]c2cc(F)cc(F)c2c1=O
[1]
  IC50: > 10000 nM

## O=c1cc(-c2ccc(N3CCCCC3)cc2)[nH]c2ccccc12
[1]
  IC50: > 10000 nM

## COc1cc2[nH]c(-c3ccc(N4CCCCC4)cc3)c(C)c(=O)c2cc1Cl
[1]
  IC50: > 10000 nM

## COc1ccc2c(=O)cc(-c3ccc(N4CCCCC4)cc3)[nH]c2c1
[1]
  IC50: > 10000 nM

## Cc1c(-c2ccc(N3CCC[C@H]3COCc3ccccc3)cc2)[nH]c2cc(F)cc(F)c2c1=O
[1]
  IC50: 960 nM

## Cc1c(-c2ccc(N3CCCC(C)C3)cc2)[nH]c2cc(F)cc(F)c2c1=O (stereo not given)
HepG2
  Activity: > 100 µM
[2]
  half-life at up to 10 µM: 22.3 min
[3]
  half-life at up to 10 µM: 10.8 min
[4]
  half-life at up to 10 µM: 7.9 min
[1]
  IC50: 367 to 370 nM
[5]
  IC90: 630 nM

## Cc1c(-c2ccc(N3CCCCCC3)cc2)[nH]c2cc(F)cc(F)c2c1=O
[6]
  solubility: < 0.1 µM
[7]
  hepatocyte CLint: 243 µL/min/1e6 cells
[8]
  logD: 4.8
[9]
  fraction unbound at 18 h, 1 µM: 0.006
[10]
  microsomal CLint: > 300 µL/min/mg
[1]
  IC50: 490 nM

## Cc1c(-c2ccc(N3CC(F)(F)C3)cc2)[nH]c2cc(F)cc(F)c2c1=O
[1]
  IC50: 1530 nM

## Cc1c(-c2ccc(NCc3ccccc3)cc2)[nH]c2cc(F)cc(F)c2c1=O
[1]
  IC50: > 10000 nM

## Cc1c(-c2ccc(-n3cccc3)cc2)[nH]c2cccc(F)c2c1=O
[1]
  IC50: 710 nM

## O=c1c(Br)c(-c2ccc(N3CCCCC3)cc2)[nH]c2ccccc12
[1]
  IC50: 600 nM

## Cc1c(-c2ccc(N3CC(C)(O)C3)cc2)[nH]c2cc(F)cc(F)c2c1=O
[1]
  IC50: > 10000 nM

## O=c1c(Cl)c(-c2ccc(N3CCC(F)CC3)cc2)[nH]c2ccccc12
[1]
  IC50: > 10000 nM

## Cc1c(-c2ccc(N3CCC[C@@H]3CO)cc2)[nH]c2cc(F)cc(F)c2c1=O
[6]
  solubility: 4 µM (≈ 1.48 µg/mL)
[7]
  hepatocyte CLint: 36.5 µL/min/1e6 cells
[8]
  logD: > 3.4
[9]
  fraction unbound at 18 h, 1 µM: 0.045
[10]
  microsomal CLint: > 300 µL/min/mg
[1]
  IC50: 320 nM

## Cc1c(-c2ccc(N3CCC(F)(F)CC3)cc2)[nH]c2cc(F)cc(F)c2c1=O
[1]
  IC50: > 10000 nM

## Cc1c(-c2ccc(N3CCC[C@H](C)C3)cc2)[nH]c2cc(F)cc(F)c2c1=O
[6]
  solubility: < 0.3 µM
[7]
  hepatocyte CLint: 91.2 µL/min/1e6 cells
HepG2
  Activity: 85.54 µM
[8]
  logD: > 3.2
[9]
  fraction unbound at 18 h, 1 µM: 0.007
[2]
  half-life at up to 10 µM: 7.65 min
[3]
  half-life at up to 10 µM: 5.72 min
[10]
  microsomal CLint: > 300 µL/min/mg
[4]
  half-life at up to 10 µM: 8.54 min
[1]
  IC50: 400 to 470 nM
[5]
  IC90: 660 nM

## Cc1c(-c2ccc(-n3cc(F)c(F)c3)cc2)[nH]c2cc(F)cc(F)c2c1=O
[2]
  half-life at up to 10 µM: ≥ 60 min
[3]
  half-life at up to 10 µM: ≥ 60 min
[4]
  half-life at up to 10 µM: ≥ 60 min
[1]
  IC50: > 10000 nM
[5]
  IC90: > 10000 nM

## Cc1c(-c2ccc(N3CCCC(F)(F)C3)cc2)[nH]c2cc(F)cc(F)c2c1=O
[2]
  half-life at up to 10 µM: 16.2 min
[3]
  half-life at up to 10 µM: 13.7 min
[4]
  half-life at up to 10 µM: 17.4 min
[1]
  IC50: 360 to 361 nM
[5]
  IC90: 830 nM

## Cc1c(-c2ccc(N3CCC(Cc4ccccc4)CC3)cc2)[nH]c2ccc(F)cc2c1=O
[1]
  IC50: > 10000 nM

## Cc1c(-c2ccc(-n3cccn3)cc2)[nH]c2cc(F)cc(F)c2c1=O
[1]
  IC50: > 10000 nM

## COc1cc2[nH]c(-c3ccc(-n4cc(F)c(F)c4)cc3)c(C)c(=O)c2cc1Cl
[1]
  IC50: > 10000 nM

## Cc1c(-c2ccc(N3CCC(C)CC3)cc2)[nH]c2cc(F)cc(F)c2c1=O
HepG2
  Activity: > 100 µM
[2]
  half-life at up to 10 µM: < 10 min
[3]
  half-life at up to 10 µM: < 10 min
[4]
  half-life at up to 10 µM: < 10 min
[1]
  IC50: 610 to 611 nM
[5]
  IC90: 1930 nM

## Cc1c(-c2ccc(N3CCC[C@@H]3C(=O)N3CCOCC3)cc2)[nH]c2cc(F)cc(F)c2c1=O
[1]
  IC50: > 10000 nM

## Cc1c(-c2ccc(N(C)C)cc2)[nH]c2cc(F)cc(F)c2c1=O
[1]
  IC50: 410 nM

## Cc1c(-c2ccc(N3CCC[C@@H](C)C3)cc2)[nH]c2cc(F)cc(F)c2c1=O
[6]
  solubility: < 0.5 µM
[7]
  hepatocyte CLint: 183 µL/min/1e6 cells
[8]
  logD: 4.7
[9]
  fraction unbound at 18 h, 1 µM: 0.005
[10]
  microsomal CLint: > 300 µL/min/mg
[1]
  IC50: 470 nM

## Cc1c(-c2ccc(N3CCC[C@@H]3C(=O)NC3CCOCC3)cc2)[nH]c2cc(F)cc(F)c2c1=O
[1]
  IC50: > 10000 nM

## COc1ccc2c(=O)c(C)c(-c3ccc(N4CCN(c5ccccc5)CC4)cc3)[nH]c2c1
[1]
  IC50: > 10000 nM

## COc1cc2[nH]c(-c3ccc(N4CCCCC4)cc3)c(C)c(=O)c2cc1OC
[1]
  IC50: > 10000 nM
